In patent publication US10857123B2, “NLRP3 inhibitors for the treatment of inflammatory skin disorders” (GALDERMA RESEARCH & DEVELOPMENT, priority 2016, dated 2020):

How the values were obtained:
[1] = system: Mouse Atopic Dermatitis Model; assay: Mouse atopic dermatitis model (epicutaneous sensitization with Dermatophagoides pteronyssinus allergen); type: in vivo, Balb/c mice; settings: for Insensible water loss (IWL) decrease / Thickness of the epidermis (epidermal acanthosis) change / Inflammatory score reduction: day 51; for Insensible water loss (IWL) decrease: FIG. 1; for Thickness of the epidermis (epidermal acanthosis) change: FIG. 2; for Inflammatory score reduction: FIG. 3
Description: Example 1: Protocol for Testing an NLRP3 Antagonist (N-((1,2,3,5,6,7-hexahydro-s-indacen-4-yl)carbamoyl)-4-(2-hydroxypropan-2-yl)furan-2-sulfonamide, Compound 3, Also Known as MCC950) on a Mouse Atopic Dermatitis Model
Female Balb/c mice were treated with the allergen Dermatophagoides pteronyssinus (DERP) in 3 cycles of epicutaneous sensitization (per patch) on the abdominal skin with 2 patches applied twice a week, followed by 2 weeks of rest, for 7 weeks. Topical treatments with an NLRP3 antagonist (compound 3, 2% in an acetone carrier) or a corticosteroid (0.1% betamethasone valerate, used as a control) were carried out 3 times over the course of the third and final week of sensitization (on days 44, 47 and 50).
An inflammatory reaction was induced by epicutaneous sensitization with patches impregnated with 100 μg of allergen in a sterile saline solution (Dermatophagoides pteronyssinus or DERP) or with a carrier applied to the abdominal skin 24 hours after shaving and left for three periods of 1 week (with a change of patch in the middle of the week), with a gap of 2 weeks between applications.
For the systemic route, the NLRP3 antagonist was administered intravenously, 200 μl, 2.5 mg/ml once a day, for the final series of epicutaneous sensitization with the allergen (D44 to D50).
For the topical administration, the test antagonist (compound 3) was formulated at 2% in an acetone carrier, applied to the sensitized skin 2 hours before the DERP patches were put in place. The topical treatments with an NLRP3 antagonist or a corticosteroid (used as a control) were carried out 3 times over the course of the third and final week of sensitization (on days 44, 47 and 50). At the time the final patch was removed (day 51), the skin and blood samples were collected.
The IWL is measured using a Tewameter on an animal the day before day 51. The Tewameter® probe measures the gradient of density of the evaporation of water from the skin indirectly by means of two sensors (temperature and relative humidity) inside a hollow cylinder. A microprocessor analyzes the values and expresses the evaporation rate in g/h/m^2.
The thickness of the epidermis is measured by histological morphometric analyses on sections 6 μm thick, stained with hematoxylin eosin (HE), originating from skin samples fixed beforehand in […].
The inflammatory score is defined visually on the basis of predefined dryness, skin rash, baldness, excoriation and lichenification scales. The mean of the five scores given to one individual mouse on a given day indicates the clinical score given on the specific day.

[2] = system: Mouse Psoriasiform Model; assay: Mouse psoriasiform model (imiquimod / Aldara-induced skin inflammation); type: in vivo, Balb/c mice; settings: topical, 3% in acetone, once a day 2 h before Aldara, FIG. 4
Description: Example 2: Protocol for Testing an NLRP3 Antagonist (N-((1,2,3,5,6,7-hexahydro-s-indacen-4-yl)carbamoyl)-4-(2-hydroxypropan-2-yl)furan-2-sulfonamide, Compound 3, Also Known as MCC950) on a Mouse Psoriasiform Model
The treatment protocol consists of a daily topical application of Aldara® (3.18 mg of imiquimod) for 7 days to the shaved skin of Balb/c mice. The NLRP3 antagonist was dissolved in 3% acetone and was applied once a day 2 h before the treatment with Aldara®. The clinical score is an overall classification resulting from the sum of the erythema, edema and desquamation scores, on the basis of the overall evaluation by the physician of the Lattice system, known as LS PGA (J Am Acad Dermatol. 2004 October; 51(4):563-9).
Indeed, imiquimod induces inflamed scaly skin lesions resembling the psoriasis plaque. These lesions are associated with increased epidermal proliferation, abnormal differentiation, an epidermal accumulation of neutrophils in […], neoangiogenesis and infiltrates consisting of CD4+ T cells, of CD11c (+) dendritic cells and of plasmacytoid dendritic cells. Imiquimod induces an epidermal expression of IL-23, IL-17A and IL-17F, and also an increase in Th17 spleen cells. […]

[3] = systemic route (intravenous, 200 μl, 2.5 mg/ml once a day, D44 to D50)
[4] = topical route (2% in acetone carrier, days 44, 47 and 50)

CC(C)(O)c1coc(S(=O)(=O)NC(=O)Nc2c3c(cc4c2CCC4)CCC3)c1 [Compound 3, N-((1,2,3,5,6,7-hexahydro-s-indacen-4-yl)carbamoyl)-4-(2-hydroxypropan-2-yl)furan-2-sulfonamide]
Insensible water loss (IWL) decrease [1, 3]: −60% | Thickness of the epidermis (epidermal acanthosis) change [1, 3]: −38% | Inflammatory score reduction [1, 3]: −62% | Insensible water loss (IWL) decrease [1, 4]: −42% | Thickness of the epidermis (epidermal acanthosis) change [1, 4]: −24% | Inflammatory score reduction [1, 4]: −39% | Efficacy compared with corticosteroid treatment ([1]; versus 0.1% betamethasone valerate, the corticosteroid control): quite close to the treatment with corticosteroids | Reduction of imiquimod-induced skin inflammation on the basis of the clinical score ([2]; day 4): −36% | Reduction of imiquimod-induced skin inflammation on the basis of the clinical score ([2]; day 5): −27%
